Reference: US4371536A, “β-Carbolin-3-carboxylic acid derivatives” (A/S Ferrosan, priority 1979, dated 1983)

What was measured:
[1] = Acute toxicity in mice (deaths within 24 hours); details: mouse, in vivo
Method: The acute toxicity in mice was determined by recording the number of deaths within 24 hours.

rats [2] = assay: Inhibition of exploratory motility in rats (sedative effect); format: in vivo; details: Rattus norvegicus, sc, 0.5 h, 30 min after s.c. administration, first 10 min in novel cage
Method: Inhibition of exploratory motility in rodents is a widely used test for sedative effect. A compound of this invention and two well known tranquilizers have been subjected to such a test.
30 Minutes after subcutaneous administration of physiological saline and test substances, rats were transferred to a novel cage and the motility was measured for the first 10 minutes. The ED50 is the dose inhibiting the motility by 50% as compared to the controls.

rats [3] = assay: Motility of rats in familiar cages during rest period (awakening effect); format: in vivo; details: for motility versus saline control: 4 hours; for behavior during the experimental (rest) period: ethyl ester 20-100 mg/kg s.c., methylamide 20-100 mg/kg p.o., amphetamine s.c.
Method: Normal locomotion, grooming and eating occur during the dark period and rest during the light period. If CNS stimulants are given to rats which have stayed in their cages for several hours, a pronounced hypermotility is observed during the light period (Buus Lassen, Psychopharmacologia 1973, 29, 55-64; Kallman and Isaac, Psychopharmacologia 1975, 40, 313-318).
Psysiological saline and test substances were administered s.c. or p.o. to rats kept in familiar cages. The motility was measured for 4 hours (2 periods of 2 hours) after administrations. The motility of groups receiving test substances was compared (Student's t-test) with the motility of the saline-treated control group.

[4] = Inhibition of motor coordination (ataxia) in mice; details: mouse, in vivo, sc, 30 minutes after s.c. administration, read-out: ED50 Ataxia (Motor incoordination)
Method: The inhibition of motor coordination in mice was also studied 30 minutes after subcutaneous administration in accordance with a method described in the literature (Buus Lassen et al, Acta pharmacol. et toxicol., 1971, 39, 1-16).

mice = assay: Inhibition of aggression in isolated male mice; format: in vivo; details: Mus musculus, sc, 0.5 h, s.c., 1/2 hour, read-out: ED50 inhibition of agression (1/2h)
Method: The inhibition of aggression has been determined on male mice (NMR from Mollegaard, Denmark) having a weight of 20-22 g. The mice are isolated for 3 weeks in plastic cages and when two mice subsequently are brought into the same cage, they will spontaneously and almost instantaneously start fighting. […] J. Pharmacol., 1978, 47, 45-49. The compounds of the invention were administered subcutaneously and orally and the antiaggressive effect after 1/2 hour was determined. Based on the data obtained, the ED50 value has been calculated.

benzodiazepine receptors = assay: Displacement of 3H-flunitrazepam binding in vitro (rat forebrain); details: 3H-flunitrazepam 1.0 nM, 0° C.
benzodiazepin receptors = assay: Inhibition of 3H-flunitrazepam binding in vivo (mouse forebrain); details: mice, s.c.; 3H-flunitrazepam i.v. 15 min later, killed after additional 20 min; 35 min
Method: The displacement activity of the compounds of the invention has been determined by determined the IC50 value and ED50 value.
The ED50 value represents the dose (mg/kg) of a test substance which causes the specific binding of flunitrazepam to benzodiazepin receptors in a living brain to be reduced to 50% of the control value. Such an in vivo test is carried out as follows:
Groups of mice are injected with the test substance at different doses and usually subcutaneously. 15 minutes later, ^3 H-flunitrazepam is given intravenously to the mice and after an additional 20 minutes, the mice are killed. Their forebrain membranes are removed and the radioactivity of the forebrain membranes is measured by scintillation counting. The ED50 value is determined from dose-response curves.

| SMILES | ED50 (mice) [mg/kg] | IC50 in vitro, inhibition of 3H-flunitrazepam binding (benzodiazepine receptors) [µg/mL] | ED50 in vivo, inhibition of 3H-flunitrazepam binding (benzodiazepin receptors) [mg/kg s.c.] | further results |
| --- | --- | --- | --- | --- |
| CCOC(=O)c1cc2c(cn1)[nH]c1ccccc12 [OC2 H5, β-carbolin-3-carboxylic acid ethyl ester] | 4 | 0.0014 | 60 | LD50 at 24 h [1]: > 500 mg/kg; ED50 (rats [2]): > 100 mg/kg; motility versus saline control (rats [3]; 20-100 mg/kg s.c., Student's t-test): increased the motility significantly (P<0.001); behavior during the experimental (rest) period (rats [3]): appeared more alert than the controls during the experimental period and showed more spells of locomotion, eating and grooming; TD50 at 0.5 h [4]: > 100 mg/kg |
| CC(N)Cc1ccccc1 (centres unmarked) [Amphetamine, reference compound] |  |  |  | motility versus saline control (rats [3]; 0.5-5 mg/ig s.c.): produced a significant hypermotility; behavior during the experimental (rest) period (rats [3]): continuous, stereotyped sniffing, rearing and licking on the cage walls; behavior during the experimental (rest) period (rats [3]; listed as amphetamine): induced an abnormal behavior which never occurs in saline-treated control rats |
| O=C(c1cc2c(cn1)[nH]c1ccccc12)N1CCCCC1 |  | 0.36 | > 250 |  |
| O=C(c1cc2c(cn1)[nH]c1ccccc12)N1CCCC1 |  | 3.3 | > 250 |  |
| CN1C(=O)CN=C(c2ccccc2)c2cc(Cl)ccc21 [Diazepam, reference compound] | 3 |  |  | ED50 (rats [2]): 0.4 mg/kg; motility versus saline control (rats [3]; 10-20 mg/kg s.c.): did not influence motility |
| CCOC(=O)CNC(=O)c1cc2c(cn1)[nH]c1ccccc12 [NH(CH2 COOC2 H5)] |  | 0.16 | > 250 |  |
| O=C(NCCO)c1cc2c(cn1)[nH]c1ccccc12 [NH(CH2 CH2 OH)] |  | 0.2 | 56 |  |
| CC(C)NC(=O)c1cc2c(cn1)[nH]c1ccccc12 [NH(iso-C3 H7)] | 75 | 0.15 | 23 |  |
| NC(=O)CNC(=O)c1cc2c(cn1)[nH]c1ccccc12 [NH(CH2 CONH2)] |  | 0.92 | > 250 |  |
| CCNC(=O)c1cc2c(cn1)[nH]c1ccccc12 [NH(C2 H5), β-carbolin-3-carboxylic acid N-ethylamide] | 18 | 0.11 | 42 | LD50 at 24 h [1]: > 250 mg/kg; TD50 at 0.5 h [4]: > 100 mg/kg |
| CN1CCN(C(=O)c2cc3c(cn2)[nH]c2ccccc23)CC1 |  | > 4 | > 250 |  |
| CNC(=O)c1cc2c(cn1)[nH]c1ccccc12 [NH(CH3), β-carbolin-3-carboxylic acid methylamide] |  | 0.1 | 25 | motility versus saline control (rats [3]; 20-100 mg/kg p.o., Student's t-test): increased the motility significantly (P<0.001); behavior during the experimental (rest) period (rats [3]): appeared more alert than the controls during the experimental period and showed more spells of locomotion, eating and grooming |
| CCCCCOC(=O)c1cc2c(cn1)[nH]c1ccccc12 [OC5 H11, n-pentyl β-carbolin-3-carboxylate] | 50 | 0.012 | > 250 |  |
| CCN(CC)C(=O)c1cc2c(cn1)[nH]c1ccccc12 [N C2 H5 (C2 H5), β-carbolin-3-carboxylic acid diethylamide] | 35 | 4.3 | 82 |  |
| O=C(NCc1ccccc1)c1cc2c(cn1)[nH]c1ccccc12 [NH(CH2 C6 H5)] |  | 0.017 | > 250 |  |
| CCNC(=O)c1cc2c3ccccc3n(C(=O)OCC)c2cn1 [NH(C2 H5), COOC2 H5, 9-carbethoxy β-carbolin-3-carboxylic acid, ethylamide] |  | 0.16 | > 100 |  |
| CNC1=Nc2ccc(Cl)cc2C(c2ccccc2)=[N+]([O-])C1 [Chlordiazepoxide, reference compound] | 45 |  |  | LD50 at 24 h [1]: 700 mg/kg; ED50 (rats [2]): 1.2 mg/kg; TD50 at 0.5 h [4]: 50 mg/kg |
| CN(C(=O)c1cc2c(cn1)[nH]c1ccccc12)c1ccccc1 [N CH3 (C6 H5), N-methyl-N-phenyl-β-carbolin-3-carboxamide] |  | > 4 | > 250 |  |
| O=C(NC1CC1)c1cc2c(cn1)[nH]c1ccccc12 [NH(C3 H5), N'-cyclopropyl-β-carbolin-3-carboxamide] |  | 0.044 | 38 |  |
